Assay results taken from ChEMBL document CHEMBL5505958, “Optimization of sequence and chiral content enhances therapeutic potential of tilapia piscidin peptides” (Eur J Med Chem, 2024).
Converted amounts (≈) assume the structure as drawn. The source made the active and inactive calls. The calls are words filed in the database; no cut-off is given here.

Key:
Lipopolysaccharide (LPS) = test: Displacement of BODIPY-TR-cadaverine from Klebsiella pneumoniae BAA 2473 lipopolysaccharide (LPS) assessed as increase in fluorescence intensity at 3.125 uM by fluorescence spectrophotometric analysis; format: subcellular
Salmonella typhimurium [1] = test: Antibacterial activity against Salmonella typhimurium DT104 assessed as inhibition of bacterial growth incubated for 16 to 20 hrs in presence of human serum; format: functional, Salmonella enterica subsp. enterica serovar Typhimurium; conditions: Salmonella enterica, time 16-20 hrs
Klebsiella pneumoniae [2] = test: Bactericidal activity against Klebsiella pneumoniae TL 297 assessed as inhibition of bacterial growth incubated for 16 to 20 hrs in presence of human serum; format: functional; conditions: time 16-20 hrs
Klebsiella pneumoniae [3] = test: Antibacterial activity against Klebsiella pneumoniae BAA 2473 assessed as inhibition of bacterial growth incubated for 16 to 20 hrs; format: functional; conditions: time 16-20 hrs
Enterococcus faecium [4] = test: Antibacterial activity against Enterococcus faecium 10067 assessed as inhibition of bacterial growth incubated for 16 to 20 hrs in presence of human serum; format: functional; conditions: time 16-20 hrs
Salmonella enterica [5] = test: Bactericidal activity against Salmonella enterica 15455 assessed as inhibition of bacterial growth incubated for 16 to 20 hrs; format: functional; conditions: time 16-20 hrs
Klebsiella oxytoca [6] = test: Bactericidal activity against Klebsiella oxytoca 13985 assessed as inhibition of bacterial growth incubated for 16 to 20 hrs in presence of human serum; format: functional; conditions: time 16-20 hrs
Klebsiella pneumoniae [7] = test: Antibacterial activity against Klebsiella pneumoniae BAA 2473 assessed as inhibition of bacterial growth in presence of 1 microg/ml of pepsin (reference value: 1.56 to 3.13 microM); format: functional
Klebsiella pneumoniae [8] = test: Antibacterial activity against Klebsiella pneumoniae BAA 2473 assessed as inhibition of bacterial growth in presence of 0.1 microg/ml of proteinase K (reference value: 1.56 to 3.13 microM); format: functional
Escherichia coli [9] = test: Antibacterial activity against Escherichia coli 10675 assessed as inhibition of bacterial growth incubated for 16 to 20 hrs in presence of human serum; format: functional; conditions: time 16-20 hrs
Rhizopus arrhizus [10] = test: Antifungal activity against Rhizopus oryzae 34550 assessed as inhibition of fungal growth incubated for 16 to 20 hrs in presence of human serum; format: functional; conditions: time 16-20 hrs
Klebsiella pneumoniae [11] = test: Antibacterial activity against Klebsiella pneumoniae TL 297 assessed as inhibition of bacterial growth incubated for 16 to 20 hrs in presence of human serum; format: functional; conditions: time 16-20 hrs
Salmonella enterica [12] = test: Bactericidal activity against Salmonella enterica 15455 assessed as inhibition of bacterial growth incubated for 16 to 20 hrs in presence of human serum; format: functional; conditions: time 16-20 hrs
Klebsiella pneumoniae [13] = test: Antibacterial activity against Klebsiella pneumoniae BAA 2473 assessed as inhibition of bacterial growth in presence of 1 microg/ml of proteinase K (reference value: 1.56 to 3.13 microM); format: functional
Klebsiella pneumoniae [14] = test: Antibacterial activity against Klebsiella pneumoniae BAA 2473 assessed as inhibition of bacterial growth in presence of 0.1 microg/ml of pepsin (reference value: 1.56 to 3.13 microM); format: functional
Klebsiella pneumoniae [15] = test: Bactericidal activity against Klebsiella pneumoniae BAA 2473 assessed as inhibition of bacterial growth in presence of 1 microg/ml of chymotrypsin (reference value: 1.56 to 3.13 microM); format: functional
Escherichia coli [16] = test: Bactericidal activity against Escherichia coli 10675 assessed as inhibition of bacterial growth incubated for 16 to 20 hrs; format: functional; conditions: time 16-20 hrs
Vibrio vulnificus [17] = test: Bactericidal activity against Vibrio vulnificus 204 assessed as inhibition of bacterial growth incubated for 16 to 20 hrs; format: functional; conditions: time 16-20 hrs
Klebsiella pneumoniae [18] = test: Bactericidal activity against Klebsiella pneumoniae BAA 2473 assessed as inhibition of bacterial growth in presence of 10 microg/ml of pepsin (reference value: 1.56 to 3.13 microM); format: functional
Vibrio vulnificus [19] = test: Bactericidal activity against Vibrio vulnificus 204 assessed as inhibition of bacterial growth incubated for 16 to 20 hrs in presence of human serum; format: functional; conditions: time 16-20 hrs
Cell membrane = test: Induction of outer cell membrane permeabilization in Klebsiella pneumoniae BAA 2473 assessed as increase in fluorescence intensity by NPN uptake assay; format: cell membranes
Vibrio vulnificus [20] = test: Antibacterial activity against Vibrio vulnificus 204 assessed as inhibition of bacterial growth incubated for 16 to 20 hrs; format: functional; conditions: time 16-20 hrs
Klebsiella oxytoca [21] = test: Antibacterial activity against Klebsiella oxytoca 13985 assessed as inhibition of bacterial growth incubated for 16 to 20 hrs in presence of human serum; format: functional; conditions: time 16-20 hrs
Rhizopus arrhizus [22] = test: Antifungal activity against Rhizopus oryzae 34550 assessed as inhibition of fungal growth incubated for 16 to 20 hrs; format: functional; conditions: time 16-20 hrs
Klebsiella pneumoniae [23] = test: Antibacterial activity against Klebsiella pneumoniae 10692 assessed as inhibition of bacterial growth incubated for 16 to 20 hrs; format: functional; conditions: time 16-20 hrs
Rhizopus arrhizus [24] = test: Fungicidal activity against Rhizopus oryzae 34550 assessed as inhibition of fungal growth incubated for 72 hrs; format: functional
Klebsiella pneumoniae [25] = test: Bactericidal activity against Klebsiella pneumoniae BAA 2473 assessed as inhibition of bacterial growth in presence of 1 microg/ml of proteinase K (reference value: 1.56 to 3.13 microM); format: functional
Klebsiella pneumoniae [26] = test: Bactericidal activity against Klebsiella pneumoniae BAA 2473 assessed as inhibition of bacterial growth in presence of 1 microg/ml of trypsin (reference value: 1.56 to 3.13 microM); format: functional
Klebsiella pneumoniae [27] = test: Antibacterial activity against Klebsiella pneumoniae BAA 2473 assessed as inhibition of bacterial growth in presence of 0.1 microg/ml of trypsin (reference value: 1.56 to 3.13 microM); format: functional
Klebsiella pneumoniae [28] = test: Bactericidal activity against Klebsiella pneumoniae BAA 2473 assessed as inhibition of bacterial growth in presence of 0.1 microg/ml of trypsin (reference value: 1.56 to 3.13 microM); format: functional
Salmonella enterica [29] = test: Antibacterial activity against Salmonella enterica 15455 assessed as inhibition of bacterial growth incubated for 16 to 20 hrs; format: functional; conditions: time 16-20 hrs
Salmonella typhimurium [30] = test: Antibacterial activity against Salmonella typhimurium DT104 assessed as inhibition of bacterial growth incubated for 16 to 20 hrs; format: functional, Salmonella enterica subsp. enterica serovar Typhimurium; conditions: Salmonella enterica, time 16-20 hrs
Enterococcus faecium [31] = test: Bactericidal activity against Enterococcus faecium 10067 assessed as inhibition of bacterial growth incubated for 16 to 20 hrs in presence of human serum; format: functional; conditions: time 16-20 hrs
Klebsiella pneumoniae [32] = test: Antibacterial activity against Klebsiella pneumoniae BAA 2473 assessed as inhibition of bacterial growth in presence of 10 microg/ml of pepsin (reference value: 1.56 to 3.13 microM); format: functional
Klebsiella pneumoniae [33] = test: Bactericidal activity against Klebsiella pneumoniae BAA 2473 assessed as inhibition of bacterial growth incubated for 16 to 20 hrs; format: functional; conditions: time 16-20 hrs
Klebsiella pneumoniae [34] = test: Bactericidal activity against Klebsiella pneumoniae BAA 2473 assessed as inhibition of bacterial growth in presence of 0.1 microg/ml of proteinase K (reference value: 1.56 to 3.13 microM); format: functional
Acinetobacter baumannii = test: Antibacterial activity against Acinetobacter baumannii 10591 assessed as inhibition of bacterial growth incubated for 16 to 20 hrs in presence of human serum; format: functional; conditions: time 16-20 hrs
Klebsiella pneumoniae [35] = test: Antibacterial activity against Klebsiella pneumoniae BAA 2473 assessed as inhibition of bacterial growth in presence of 10 microg/ml of chymotrypsin (reference value: 1.56 to 3.13 microM); format: functional
Klebsiella pneumoniae [36] = test: Bactericidal activity against Klebsiella pneumoniae 10692 assessed as inhibition of bacterial growth incubated for 16 to 20 hrs; format: functional; conditions: time 16-20 hrs
Klebsiella pneumoniae [37] = test: Antibacterial activity against Klebsiella pneumoniae BAA 2473 assessed as inhibition of bacterial growth in presence of 0.1 microg/ml of chymotrypsin (reference value: 1.56 to 3.13 microM); format: functional

Structure (SMILES): CC(C)C[C@H](NC(=O)[C@@H](C)NC(=O)[C@@H](CCCCN)NC(=O)[C@H](CC(C)C)NC(=O)[C@@H](CC(C)C)NC(=O)[C@@H](CCCCN)NC(=O)[C@H](CCCCN)NC(=O)[C@@H](CC(C)C)NC(=O)[C@H](N)Cc1ccccc1)C(=O)N[C@H](Cc1ccccc1)C(=O)N[C@H](CO)C(=O)N[C@@H](C)C(=O)N1CCC[C@@H]1C(=O)N[C@H](CCCCN)C(=O)N[C@@H](C)C(=O)N[C@H](CC(C)C)C(=O)N[C@H](CCCCN)C(=O)N[C@@H](CCCNC(=N)N)C(=O)N[C@H](CC(C)C)C(=O)N[C@H](CC(C)C)C(=O)N[C@@H](CCCNC(=N)N)C(=O)N[C@H](CCCNC(=N)N)C(=O)N[C@H](CCCNC(=N)N)C(=O)N[C@@H](CCCNC(=N)N)C(=O)N[C@@H](CCCNC(=N)N)C(=O)O
- Activity (Lipopolysaccharide (LPS)): 100%
- MIC (Salmonella typhimurium [1]): 6.25 µM
- MBC (Klebsiella pneumoniae [2]): 1.56 µM
- MIC (Klebsiella pneumoniae [3]): 0.78 µM (≈ 2.4 µg/mL)
- MIC (Enterococcus faecium [4]): 100 µM
- MBC (Salmonella enterica [5]): 3.13 µM (≈ 9.64 µg/mL)
- MBC (Klebsiella oxytoca [6]): 6.25 µM
- MIC (Klebsiella pneumoniae [7]): 0.78 µM
- MIC (Klebsiella pneumoniae [8]): 0.78 µM
- MIC (Escherichia coli [9]): 0.78 µM
- MIC (Rhizopus arrhizus [10]): 6.25 µM
- MIC (Klebsiella pneumoniae [11]): 1.56 µM
- MBC (Salmonella enterica [12]): 0.78 µM
- MIC (Klebsiella pneumoniae [13]): 0.78 µM
- MIC (Klebsiella pneumoniae [14]): 0.78 µM
- MBC (Klebsiella pneumoniae [15]): 0.78 µM
- MBC (Escherichia coli [16]): 1.56 µM (≈ 4.8 µg/mL)
- MBC (Vibrio vulnificus [17]): 12.5 µM (≈ 38.5 µg/mL)
- MBC (Klebsiella pneumoniae [18]): 1.56 µM
- MBC (Vibrio vulnificus [19]): 12.5 µM
- Activity (Cell membrane): Active
- MIC (Vibrio vulnificus [20]): 6.25 µM (≈ 19.2 µg/mL)
- MIC (Klebsiella oxytoca [21]): 6.25 µM
- MIC (Rhizopus arrhizus [22]): 1.56 µM (≈ 4.8 µg/mL)
- MIC (Klebsiella pneumoniae [23]): 6.25 µM (≈ 19.2 µg/mL)
- MFC (Rhizopus arrhizus [24]): 1.56 µM (≈ 4.8 µg/mL)
- MBC (Klebsiella pneumoniae [25]): 0.78 µM
- MBC (Klebsiella pneumoniae [26]): 1.56 µM
- MIC (Klebsiella pneumoniae [27]): 0.78 µM
- MBC (Klebsiella pneumoniae [28]): 1.56 µM
- MIC (Salmonella enterica [29]): 3.13 µM (≈ 9.64 µg/mL)
- MIC (Salmonella typhimurium [30]): 3.13 µM (≈ 9.64 µg/mL)
- MBC (Enterococcus faecium [31]): 100 µM
- MIC (Klebsiella pneumoniae [32]): 0.78 µM
- MBC (Klebsiella pneumoniae [33]): 25 µM (≈ 77 µg/mL)
- MBC (Klebsiella pneumoniae [34]): 1.56 µM
- MIC (Acinetobacter baumannii): 1.56 µM
- MIC (Klebsiella pneumoniae [35]): 0.78 µM
- MBC (Klebsiella pneumoniae [36]): 25 µM (≈ 77 µg/mL)
- MIC (Klebsiella pneumoniae [37]): 0.78 µM
